The test system of the experiment is 521955-158-R2-J5-PDC complex spheroid viability. Kind of experiment: Anticancer human tumor 521955-158-R2-J5-PDC patient-derived pancreatic carcinoma cell line growth inhibition. The following applies: for viability, T/C: stronger effect = lower value. Summed up:
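Multicellular complex spheroids of tumor cells with human endothelial cells (HUVEC) and mesenchymal stem cells; the LSD1 inhibitor iadademstat was combined with standard-of-care or investigational agents. Top concentration at or near clinical Cmax, half-log dilutions; final DMSO ≤0.25%.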

Structures are written as SMILES. “And” between values parts separate entries of the source, which are not always exact repeats. Identical values can stand only once.
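Further: spheroids exposed to agents for seven days.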
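Wherever viability, T/C is given: percent of DMSO vehicle control luminescence viability.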

The term IC50 denotes the concentration that inhibits the measured activity by half. Usually viability, T/C stands for the ratio of treated to control. As to `CC(C)c1c(-c2ccccc2)nc2c(C#N)c[nH]n2c1=O` + NC1CC1c1ccc(-c2cccc(O)c2)cc1, the half-inhibitory concentration (IC50) is, setting by setting: (curve of first compound, second compound 0.1 µM) above 10 µM; (curve of first compound, second compound 0.316 µM) above 10 µM; (curve of first compound, second compound 1 µM) above 10 µM; (curve of first compound, second compound 3.16 µM) above 10 µM; (curve of first compound, second compound 10 µM) 3.3 µM. The viability, T/C is 48.6% (second compound 0.1 µM, first compound 0.0316 µM); 55.6% (second compound 0.1 µM, first compound 0.1 µM); 62.2% (second compound 0.1 µM, first compound 0.316 µM); 46.3% (second compound 0.1 µM, first compound 1 µM); 54.8% (second compound 0.1 µM, first compound 3.16 µM); 56.8% (second compound 0.1 µM, first compound 10 µM). Further, the viability, T/C by setting is: (second compound 0.316 µM, first compound 0.0316 µM) 54.5%; (second compound 0.316 µM, first compound 0.1 µM) 55.9%; (second compound 0.316 µM, first compound 0.316 µM) 60.8%; (second compound 0.316 µM, first compound 1 µM) 56.3%; (second compound 0.316 µM, first compound 3.16 µM) 54.5%; (second compound 0.316 µM, first compound 10 µM) 46.8%. Further, the viability, T/C is, setting by setting: (second compound 1 µM, first compound 0.0316 µM) 65.5%; (second compound 1 µM, first compound 0.1 µM) 70.8%; (second compound 1 µM, first compound 0.316 µM) 72.2%; (second compound 1 µM, first compound 1 µM) 58.8%; (second compound 1 µM, first compound 3.16 µM) 60.6%; (second compound 1 µM, first compound 10 µM) 49.5%. Besides, the viability, T/C was 57.6% (second compound 3.16 µM, first compound 0.0316 µM); 67.2% (second compound 3.16 µM, first compound 0.1 µM); 71.3% (second compound 3.16 µM, first compound 0.316 µM); 69.8% (second compound 3.16 µM, first compound 1 µM); 58.3% (second compound 3.16 µM, first compound 3.16 µM); 39.7% (second compound 3.16 µM, first compound 10 µM). The viability, T/C was 62.9% (second compound 10 µM, first compound 0.0316 µM); 72.7% (second compound 10 µM, first compound 0.1 µM); 70.2% (second compound 10 µM, first compound 0.316 µM); 61.8% (second compound 10 µM, first compound 1 µM); 50.9% (second compound 10 µM, first compound 3.16 µM); 41.3% (second compound 10 µM, first compound 10 µM).
As to `Cn1ncnc1C1c2n[nH]c(=O)c3cc(F)cc(c23)NC1c1ccc(F)cc1` (configuration not stated), the viability, T/C is, setting by setting: (compound 0.000316 µM) 102% and 101%; (compound 0.001 µM) 97.6% and 112%; (compound 0.00316 µM) 95.6% and 91.6%; (compound 0.01 µM) 96.3% and 103%; (compound 0.0316 µM) 91.7% and 89.2%; (compound 0.1 µM) 86.4% and 98%. Moreover, the IC50 (curve of compound) is above 0.1 µM.

These data come from PubChem BioAssay AID1918937 (Molecular Pharmacology Branch, DTP, NCI, 2023).
